This note sets out measurements from US9399649B2, “Compounds for treating spinal muscular atrophy” (PTC Therapeutics Inc., priority 2012, dated 2016).

In one data set the test system is Smn protein. The data set is described as follows: Smn protein assay in cultured cells (SMN HTRF). The class given is cell-based, human. As to conditions: SMA patient fibroblast cells (GM03813), 48 hours; for EC1.5x for Smn protein expression: 7-point concentration curve, concentration producing 1.5 times Smn protein vs DMSO vehicle; for maximum fold (Fold) increase of Smn protein: 7-point concentration data, relative to vehicle control. The method in brief:
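Smn protein measured by HTRF (anti-SMN d2/kryptate) in lysates of SMA patient fibroblasts after 48 h compound treatment, 7-point 3.16-fold dilutions, triplicates. The 665/620 nm ratio is blank-corrected to ΔF, then divided by the vehicle ΔF to give fold increase.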

Data set [1] has as its system full length SMN2 minigene mRNA containing SMN2 exon 7. Put plainly: SMN2 minigene mRNA splicing RT-qPCR assay in cultured cells. The class given is cell-based, human. As to conditions: Homo sapiens, HEK293-H; HEK293H cells stably transfected with SMN2-A minigene, 24 hours, 7-point concentration curve; concentration giving 1.5-fold full length SMN2 mRNA vs vehicle; read-out: EC1.5x for production of full length SMN2 mRNA. The essentials: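 Read-out is minigene FL mRNA (exon 7 included) relative to vehicle, from efficiency-corrected ΔΔCt with GAPDH normalisation. Primers and probe span exon 7, exon 8 and luciferase, so endogenous SMN is not detected. Stable SMN2-A minigene HEK293H cells, 24 h compound exposure at 37 °C, 7-point curve in duplicate.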
In general terms: Quantitative PCR measures a nucleic acid by following its amplification.

What is called melting point is the temperature, or range, at which the solid turns liquid. `Cc1cn2cc(-c3cc4ccc(N5C[C@@H](C)N(C)[C@@H](C)C5)cc4c(=O)o3)nc2cn1` [Cpd 131, 3-(6-methylimidazo[1,2-a]pyrazin-2-yl)-7-[(3R,5S)-3,4,5-trimethylpiperazin-1-yl]-1H-isochromen-1-one] came in with a melting point of 279 to 284 °C. In the data set on Smn protein, the “EC1.5x for Smn protein expression” value is “**** (an EC1.5×≦0.3 nM is indicated by four stars (****))” and the “maximum fold (Fold) increase of Smn protein” value (“maximum fold (Fold) increase” for short) is listed as “***** (a fold increase >1.65 is indicated by five stars (*****))”. Besides, in data set [1], the EC (1.5-fold) is not above 0.1 µM.
The compound `Cc1cn2cc(-c3cc4ccc(N5CCN(C6COC6)CC5)cc4c(=O)o3)nc2c(C)n1` [Cpd 97, 3-(6,8-dimethylimidazo[1,2-a]pyrazin-2-yl)-7-[4-(oxetan-3-yl)piperazin-1-yl]-1H-isochromen-1-one] yielded a melting point of 294 to 296 °C. The “maximum fold (Fold) increase” value in the data set on Smn protein is “*** (a fold increase between >1.35 and ≦1.5 is indicated by three stars (***))”. In addition, the EC (1.5-fold) in data set [1] was 1 to 3 µM.
In turn, `Cc1cn2cc(-c3cc4ccc(N5CCN[C@H](C)C5)cc4c(=O)o3)nc2cn1` [Cpd 125, 3-(6-methylimidazo[1,2-a]pyrazin-2-yl)-7-[(3R)-3-methylpiperazin-1-yl]-1H-isochromen-1-one] had a melting point of 219 to 225 °C. In the data set on Smn protein, the “EC1.5x for Smn protein expression” value was “**** (an EC1.5×≦0.3 nM is indicated by four stars (****))” and the “maximum fold (Fold) increase” value is listed as “***** (a fold increase >1.65 is indicated by five stars (*****))”. Also, in data set [1], the EC (1.5-fold) was not above 0.1 µM.
`C[C@H]1CN(c2ccc3cc(-c4ccccn4)oc(=O)c3c2)CCN1` [Cpd 34, 7-[(3S)-3-methylpiperazin-1-yl]-3-(pyridin-2-yl)-1H-isochromen-1-one] came in with a melting point of 343 to 345 °C. Further, in the data set with Smn protein, the “EC1.5x for Smn protein expression” value is “* (An EC1.5× for Smn protein expression between >3 μM and <10 μM is indicated by one star (*))”; the “maximum fold (Fold) increase” value is “*** (a fold increase between >1.35 and ≦1.5 is indicated by three stars (***))”. Besides, the EC (1.5-fold) in data set [1] lay in the range of 0.3 to 1 µM.
Compound `CN1CCN(c2ccc3cc(-c4cn5ccsc5n4)oc(=O)c3c2)CC1` [Cpd 33, 3-(imidazo[2,1-b][1,3]thiazol-6-yl)-7-(4-methylpiperazin-1-yl)-1H-isochromen-1-one] yielded a melting point of 236 to 238 °C. The “maximum fold (Fold) increase” value with Smn protein is on record as “* (A maximum fold increase of ≦1.2 is indicated by one star (*))”. Also, the EC (1.5-fold) in data set [1] is 1 to 3 µM.
The compound `Cc1cn2cc(-c3cc4ccc(C5=CCN(C(C)C)CC5)cc4c(=O)o3)nc2c(C)n1` [Cpd 91, 3-(6,8-dimethylimidazo[1,2-a]pyrazin-2-yl)-7-[1-(propan-2-yl)-1,2,3,6-tetrahydropyridin-4-yl]-1H-isochromen-1-one] showed a melting point of 259 to 261 °C. In the data set with Smn protein, the “EC1.5x for Smn protein expression” value is “*** (an EC1.5× between >0.3 nM and ≦1 nM is indicated by three stars (***))”; the “maximum fold (Fold) increase” value is “*** (a fold increase between >1.35 and ≦1.5 is indicated by three stars (***))”. Moreover, the EC (1.5-fold) in data set [1] is not above 0.1 µM.
In turn, `COc1ccc(-c2cc3ccc(N4CCN[C@@H](C)C4)cc3c(=O)o2)c(F)c1` [Cpd 45, 3-(2-fluoro-4-methoxyphenyl)-7-[(3S)-3-methylpiperazin-1-yl]-1H-isochromen-1-one] had a melting point of 167 to 168 °C. In addition, the “maximum fold (Fold) increase” value in the data set with Smn protein was “*** (a fold increase between >1.35 and ≦1.5 is indicated by three stars (***))”. The EC (1.5-fold) in data set [1] was in the range of 0.1 to 0.3 µM.
In turn, `COc1cccc(-c2cc3ccc(N4CCN(C)CC4)cc3c(=O)o2)c1` [Cpd 19, 3-(3-methoxyphenyl)-7-(4-methylpiperazin-1-yl)-1H-isochromen-1-one] registered a melting point of 140 to 142 °C. The “maximum fold (Fold) increase” value in the data set on Smn protein is “* (A maximum fold increase of ≦1.2 is indicated by one star (*))”. For the same compound, in data set [1], the EC (1.5-fold) was in the range of 3 to 30 µM.
The compound `Cc1nc(Cl)cn2cc(-c3cc4ccc(C5=CCNCC5)cc4c(=O)o3)nc12` [Cpd 113, 3-(6-chloro-8-methylimidazo[1,2-a]pyrazin-2-yl)-7-(1,2,3,6-tetrahydropyridin-4-yl)-1H-isochromen-1-one] yielded a melting point of 269 to 273 °C. Also, in the data set with Smn protein, the “EC1.5x for Smn protein expression” value is “** (an EC1.5× between >1 μM, and ≦3 nM is indicated by two stars (**))”; the “maximum fold (Fold) increase” value is “**** (a fold increase between >1.5 and ≦1.65 is indicated by four stars (****))”. For the same compound, in data set [1], the EC (1.5-fold) is not above 0.1 µM.
On to `C[C@H]1CN(c2ccc3cc(-c4cn5cccc(Cl)c5n4)oc(=O)c3c2)CCN1` [Cpd 60, 3-(8-chloroimidazo[1,2-a]pyridin-2-yl)-7-[(3S)-3-methylpiperazin-1-yl]-1H-isochromen-1-one], for which the melting point fell in the range of 314 to 316 °C. In addition, the “maximum fold (Fold) increase” value in the data set on Smn protein was “*** (a fold increase between >1.35 and ≦1.5 is indicated by three stars (***))”. The EC (1.5-fold) in data set [1] was 0.3 to 1 µM.
For the compound `Cc1cn2cc(-c3cc4ccc(N5CCN(C)[C@H](C)C5)cc4c(=O)o3)nc2cn1` [Cpd 127, 7-[(3R)-3,4-dimethylpiperazin-1-yl]-3-(6-methylimidazo[1,2-a]pyrazin-2-yl)-1H-isochromen-1-one], the melting point lay in the range of 243 to 248 °C. For the same compound, in the data set on Smn protein, the “EC1.5x for Smn protein expression” value is “**** (an EC1.5×≦0.3 nM is indicated by four stars (****))” and the “maximum fold (Fold) increase” value is “***** (a fold increase >1.65 is indicated by five stars (*****))”. Moreover, in data set [1], the EC (1.5-fold) was not above 0.1 µM.
On to `Cc1cn2cc(-c3cc4ccc(N5CCN(CC(C)C)CC5)cc4c(=O)o3)nc2c(C)n1` [Cpd 86, 3-(6,8-dimethylimidazo[1,2-a]pyrazin-2-yl)-7-[4-(2-methylpropyl)piperazin-1-yl]-1H-isochromen-1-one], for which the melting point lay in the range of 243 to 245 °C. Further, the “maximum fold (Fold) increase” value in the data set with Smn protein was “*** (a fold increase between >1.35 and ≦1.5 is indicated by three stars (***))”. Moreover, in data set [1], the EC (1.5-fold) is not above 0.1 µM.
`CCc1nc(C)cn2cc(-c3cc4ccc(N5C[C@@H](C)N[C@@H](C)C5)cc4c(=O)o3)nc12` [Cpd 154, 7-[(3R,5S)-3,5-dimethylpiperazin-1-yl]-3-(8-ethyl-6-methylimidazo[1,2-a]pyrazin-2-yl)-1H-isochromen-1-one] had a melting point of 239 to 244 °C. Besides, in the data set with Smn protein, the “EC1.5x for Smn protein expression” value is reported as “**** (an EC1.5×≦0.3 nM is indicated by four stars (****))” and the “maximum fold (Fold) increase” value was “***** (a fold increase >1.65 is indicated by five stars (*****))”. Also, the EC (1.5-fold) in data set [1] is not above 0.1 µM.
In the case of `O=c1oc(-c2cc(F)cc(F)c2)cc2ccc(N3CCNCC3)cc12` [Cpd 14, 3-(3,5-difluorophenyl)-7-(piperazin-1-yl)-1H-isochromen-1-one], the melting point lay in the range of 200 to 202 °C. For the same compound, the “maximum fold (Fold) increase” value in the data set on Smn protein was “** (a fold increase between >1.2 and ≦1.35 is indicated by two stars (**))”. Further, the EC (1.5-fold) in data set [1] lay in the range of 1 to 3 µM.
Turning to `C[C@@H]1CN(c2ccc3cc(-c4ccc5c(c4)OCCO5)oc(=O)c3c2)CCN1` [Cpd 37, 3-(2,3-dihydro-1,4-benzodioxin-6-yl)-7-[(3R)-3-methylpiperazin-1-yl]-1H-isochromen-1-one], the melting point fell in the range of 175 to 177 °C. In the data set on Smn protein, the “maximum fold (Fold) increase” value is reported as “* (A maximum fold increase of ≦1.2 is indicated by one star (*))”. Further, the EC (1.5-fold) in data set [1] was in the range of 1 to 3 µM.
`CCc1nc(C)cn2cc(-c3cc4ccc(N5CCN(C)[C@@H](C)C5)cc4c(=O)o3)nc12` [Cpd 155, 7-[(3S)-3,4-dimethylpiperazin-1-yl]-3-(8-ethyl-6-methylimidazo[1,2-a]pyrazin-2-yl)-1H-isochromen-1-one] showed a melting point of 233 to 238 °C. Besides, in the data set on Smn protein, the “EC1.5x for Smn protein expression” value is on record as “**** (an EC1.5×≦0.3 nM is indicated by four stars (****))” and the “maximum fold (Fold) increase” value was “***** (a fold increase >1.65 is indicated by five stars (*****))”. Besides, the EC (1.5-fold) in data set [1] is not above 0.1 µM.
As to `COc1ccc(-c2cc3ccc(N4CCN[C@@H](C)C4)cc3c(=O)o2)cc1OC` [Cpd 30, 3-(3,4-dimethoxyphenyl)-7-[(3S)-3-methylpiperazin-1-yl]-1H-isochromen-1-one], the melting point fell in the range of 155 to 157 °C. Besides, in the data set on Smn protein, the “EC1.5x for Smn protein expression” value is recorded as “**** (an EC1.5×≦0.3 nM is indicated by four stars (****))”; the “maximum fold (Fold) increase” value is “**** (a fold increase between >1.5 and ≦1.65 is indicated by four stars (****))”. In addition, the EC (1.5-fold) in data set [1] was not above 0.1 µM.
As to `CCOc1ccc(-c2cc3ccc(N4CCNCC4)cc3c(=O)o2)cc1` [Cpd 51, 3-(4-ethoxyphenyl)-7-(piperazin-1-yl)-1H-isochromen-1-one], the melting point was 245 °C (dec.). In addition, the “maximum fold (Fold) increase” value in the data set on Smn protein is recorded as “* (A maximum fold increase of ≦1.2 is indicated by one star (*))”. The EC (1.5-fold) in data set [1] was 1 to 3 µM.
On to `O=c1oc(-c2nc3ccccc3s2)cc2ccc(N3CCNCC3)cc12` [Cpd 8, 3-(1,3-benzothiazol-2-yl)-7-(piperazin-1-yl)-1H-isochromen-1-one], for which the melting point is 324 to 326 °C. Also, the “maximum fold (Fold) increase” value in the data set on Smn protein is recorded as “* (A maximum fold increase of ≦1.2 is indicated by one star (*))”. The EC (1.5-fold) in data set [1] was 3 to 30 µM.
